Results as given in US10219516B2, “Molecules having pesticidal utility, and intermediates, compositions, and processes, related thereto” (priority 2015, dated 2019).
Read-outs that look alike come from different tables or passages of the source.

Columns and labels:
Format in all cases: in vivo
[1] = system: Yellow Fever Mosquito (Aedes aegypti, AEDSAE); assay: Bioassay on Yellow Fever Mosquito (YFM), 96-well plate larval assay; conditions: Species YFM (Yellow Fever Mosquito)
Outline: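 Aedes aegypti larvae (about 1 day old) in liver-powder water were added to plates dispensed from DMSO master plates (4000 ppm stock) diluted with 90:10 water/acetone; six replicate plates per master. Lidded plates were held at room temperature for 3 days, then each well was scored for mortality.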

[2] = system: Cabbage Looper (Trichoplusia ni, TRIPNI); assay: Bioassay on Cabbage Looper (CL), 128-well diet tray assay; conditions: Trichoplusia ni
Outline: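 Mortality of second instar larvae exposed to diet coated with 50 μg/cm^2 compound (acetone-water 90:10 vehicle, dried); 25° C., 5–7 days.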

[3] = system: Green Peach Aphid (Myzus persicae, MYZUPE); assay: Bioassay on Green Peach Aphid (GPA), foliar spray on infested cabbage seedlings; conditions: 72 h
Protocol: Certain molecules disclosed in this document were tested against GPA using procedures described in the following example. In the reporting of the results, the “GPA & YFM Rating Table” was used (See Table Section).
Cabbage seedlings grown in 3-inch pots, with 2-3 small (3-5 cm) true leaves, were used as test substrate. The seedlings were infested with 20-50 GPA (wingless adult and nymph stages) one day prior to chemical application. Four pots with individual seedlings were used for each treatment. Test molecules (2 mg) were dissolved in 2 mL of acetone/methanol (1:1) solvent, forming stock solutions of 1000 ppm test molecule. The stock solutions were diluted 5× with 0.025% Tween 20 in water to obtain the solution at 200 ppm test molecule. A hand-held aspirator-type sprayer was used for spraying a solution to both sides of […] leaves until runoff. Reference plants (solvent check) were sprayed with the diluent only containing 20% by volume of acetone/methanol (1:1) solvent. Treated plants were held in a holding room for three days at approximately 25° C. and ambient relative humidity (RH) prior to grading. Evaluation was conducted by counting the number of live aphids per plant under a microscope. Percent control was measured using Abbott's correction formula (W. S. Abbott, “A Method of Computing the Effectiveness of an Insecticide” 3. Econ. Entomol. 18 (1925), pp. 265-267) as follows. Corrected % Control=100*(X−Y)/X where X=No. of live aphids on solvent check plants and Y=No. of live aphids on treated plants. The results are indicated in the table entitled “Table ABC: Biological Results” (See Table Section).

[4] = system: Beet Armyworm (Spodoptera exigua, LAPHEG); assay: Bioassay on Beet Armyworm (BAW), 128-well diet tray assay
Outline: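 Diet tray, 8 wells/compound; 50 μg/cm^2 applied to diet surface (90:10 acetone-water), dried. 1–5 L2 larvae/well; 25° C., 14:10 L:D, 5–7 d. Read-out: % mortality, mean of 8 wells.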

[5] = Species CL (Cabbage Looper), read-out: CL (Biological Results, rating)
[6] = foliar, Species GPA (Green Peach Aphid), read-out: GPA (Biological Results, rating)
[7] = Species BAW (Beet Armyworm), read-out: BAW (Biological Results, rating)

Structure (SMILES)	YFM (Biological Results, rating) [1]	pest or weed control at 50 µg/cm2 [2, 5]	pest or weed control at 200 µg/mL [3, 6]	pest or weed control at 50 µg/cm2 [4, 7]	pest or weed control at 50 µg/cm2 ([2]; Cabbage Looper, 128-well diet tray assay, read-out: CL rating)	pest or weed control at 200 µg/mL ([3]; Green Peach Aphid, foliar spray on cabbage seedlings, read-out: GPA rating)	pest or weed control at 50 µg/cm2 ([4]; Beet Armyworm, 128-well diet tray assay, read-out: BAW rating)
O=C(Nc1ccc(F)cc1)c1cc(NC(=O)[C@H]2[C@H](c3cc(Cl)cc(Cl)c3)C2(Cl)Cl)ccc1Cl (relative stereo) [F1, trans-2-chloro-5-(2,2-dichloro-3-(3,5-dichlorophenyl)cyclopropane-1-carboxamido)-N-(4-fluorophenyl)benzamide]	A (80-100)	50 to 100%	0 to 80%	50 to 100%			
O=C(Nc1ccc(F)cc1)c1cccc(NC(=O)[C@H]2[C@H](c3cc(Cl)cc(Cl)c3)C2(Cl)Cl)c1 (relative stereo) [F2, trans-3-(2,2-Dichloro-3-(3,5-dichlorophenyl)cyclopropane-1-carboxamido)-N-(4-fluorophenyl)benzamide]	A (80-100)	50 to 100%	0 to 80%	50 to 100%			
Cc1ccccc1NC(=O)c1cc(NC(=O)[C@H]2[C@H](c3cc(Cl)cc(Cl)c3)C2(Cl)Cl)ccc1Cl (relative stereo) [F9, trans-2-Chloro-5-(2,2-dichloro-3-(3,5-dichlorophenyl)cyclopropane-1-carboxamido)-N-(o-tolyl)benzamide]	A (80-100)	50 to 100%	80 to 100%	50 to 100%			
Cc1ccc(NC(=O)[C@H]2[C@H](c3cc(Cl)cc(Cl)c3)C2(Cl)Cl)cc1C(=O)Nc1ccc(F)cc1 (relative stereo) [F10, trans-5-(2,2-Dichloro-3-(3,5-dichlorophenyl)cyclopropane-1-carboxamido)-N-(4-fluorophenyl)-2-methylbenzamide]	A (80-100)	50 to 100%	0 to 80%	50 to 100%			
O=C(Nc1ccc(F)cc1)c1cc(NC(=O)[C@H]2[C@H](c3cc(Cl)c(Cl)c(Cl)c3)C2(Cl)Cl)ccc1Cl (relative stereo) [F13, trans-2-Chloro-5-(2,2-dichloro-3-(3,4,5-trichlorophenyl)cyclopropane-1-carboxamido)-N-(4-fluorophenyl)benzamide]	A (80-100)	50 to 100%	0 to 80%	50 to 100%			
O=C(Nc1ccc(F)cc1)c1cc(NC(=O)[C@H]2[C@H](c3ccc(Cl)c(Cl)c3)C2(Cl)Cl)ccc1Cl (relative stereo) [F14, trans-2-Chloro-5-(2,2-dichloro-3-(3,4-dichlorophenyl)cyclopropane-1-carboxamido)-N-(4-fluorophenyl)benzamide]	A (80-100)	50 to 100%	80 to 100%	50 to 100%			
O=C(Nc1ccc(F)cc1)c1cccc(NC(=O)[C@H]2[C@H](c3cc(Cl)cc(Cl)c3)C2(Cl)Cl)c1F (relative stereo) [F15, trans-3-(2,2-Dichloro-3-(3,5-dichlorophenyl)cyclopropane-1-carboxamido)-2-fluoro-N-(4-fluorophenyl)benzamide]	A (80-100)	50 to 100%	0 to 80%	50 to 100%			
O=C(Nc1ccccc1)c1cc(NC(=O)[C@H]2[C@H](c3cc(Cl)cc(Cl)c3)C2(Cl)Cl)ccc1Cl (relative stereo) [F16, trans-2-Chloro-5-(2,2-Dichloro-3-(3,5-dichlorophenyl)cyclopropane-1-carboxamido)-N-phenylbenzamide]	A (80-100)	50 to 100%	0 to 80%	50 to 100%			
O=C(Nc1ccc(F)cc1F)c1cc(NC(=O)[C@H]2[C@H](c3cc(Cl)cc(Cl)c3)C2(Cl)Cl)ccc1Cl (relative stereo) [F18, trans-2-Chloro-5-(2,2-dichloro-3-(3,5-dichlorophenyl)cyclopropane-1-carboxamido)-N-(2,4-difluorophenyl)benzamide]	A (80-100)	50 to 100%	80 to 100%	50 to 100%			
CN(C(=O)c1cc(NC(=O)[C@H]2[C@H](c3cc(Cl)cc(Cl)c3)C2(Cl)Cl)ccc1Cl)c1ccc(F)cc1 (relative stereo) [F19, trans-2-Chloro-5-(2,2-dichloro-3-(3,5-dichlorophenyl)cyclopropane-1-carboxamido)-N-(4-fluorophenyl)-N-methylbenzamide]	A (80-100)	50 to 100%	80 to 100%	50 to 100%			
O=C(Nc1cccc(F)c1)c1cc(NC(=O)[C@H]2[C@H](c3cc(Cl)cc(Cl)c3)C2(Cl)Cl)ccc1Cl (relative stereo) [F20, trans-2-Chloro-5-(2,2-dichloro-3-(3,5-dichlorophenyl)cyclopropane-1-carboxamido)-N-(3-fluorophenyl)benzamide]	A (80-100)	50 to 100%	0 to 80%	50 to 100%			
N#Cc1cccc(NC(=O)c2cc(NC(=O)[C@H]3[C@H](c4cc(Cl)cc(Cl)c4)C3(Cl)Cl)ccc2Cl)c1 (relative stereo) [F21, trans-2-Chloro-N-(3-cyanophenyl)-5-(2,2-dichloro-3-(3,5-dichlorophenyl)cyclopropane-1-carboxamido)benzamide]	A (80-100)	50 to 100%	0 to 80%	50 to 100%			
O=C(Nc1cccc(F)c1F)c1cc(NC(=O)[C@H]2[C@H](c3cc(Cl)cc(Cl)c3)C2(Cl)Cl)ccc1Cl (relative stereo) [F22, trans-2-Chloro-5-(2,2-dichloro-3-(3,5-dichlorophenyl)cyclopropane-1-carboxamido)-N-(2,3-difluorophenyl)benzamide]	A (80-100)	50 to 100%	80 to 100%	50 to 100%			
O=C(Nc1ccc(F)cc1)c1ccc(Cl)c(NC(=O)[C@H]2[C@H](c3cc(Cl)cc(Cl)c3)C2(Cl)Cl)c1 (relative stereo) [F130, trans-4-Chloro-3-(2,2-dichloro-3-(3,5-dichlorophenyl)cyclopropane-1-carboxamido)-N-(4-fluorophenyl)benzamide]	B (More than 0-Less than 80)	50 to 100%	0 to 80%				
CC(=O)Nc1ccc(NC(=O)c2cc(NC(=O)[C@H]3[C@H](c4cc(Cl)cc(Cl)c4)C3(Cl)Cl)ccc2Cl)cc1 (relative stereo) [F153, trans-N-(4-Acetamidophenyl)-2-chloro-5-(2,2-dichloro-3-(3,5-dichlorophenyl)cyclopropane-1-carboxamido)benzamide]		50 to 100%	0 to 80%	50 to 100%			
O=C(Nc1cc(F)cc(F)c1)c1cc(NC(=O)[C@H]2[C@H](c3cc(Cl)cc(Cl)c3)C2(Cl)Cl)ccc1Cl (relative stereo) [F154, trans-2-Chloro-5-(2,2-dichloro-3-(3,5-dichlorophenyl)cyclopropane-1-carboxamido)-N-(3,5-difluorophenyl)benzamide]		50 to 100%	80 to 100%	50 to 100%			
O=C(Nc1ccc(Cl)c(C(=O)N2CCc3cc(F)ccc32)c1)[C@H]1[C@H](c2cc(Cl)cc(Cl)c2)C1(Cl)Cl (relative stereo) [F155, trans-2,2-Dichloro-N-(4-chloro-3-(5-fluoroindoline-1-carbonyl)phenyl)-3-(3,5-dichlorophenyl)cyclopropane-1-carboxamide]		50 to 100%	0 to 80%	50 to 100%			
O=C(Nc1ccc(F)cc1)c1cc(NC(=O)C2C(c3cc(Cl)cc(Cl)c3)C2(F)Cl)ccc1Cl (stereo not drawn) [PF153, 2-Chloro-5-(trans)-2-chloro-3-(3,5-dichlorophenyl)-2-fluorocyclopropane-1-carboxamido)-N-(4-fluorophenyl)benzamide]					50 to 100%	80 to 100%	50 to 100%
